Assay results reported in patent publication US10227347B2, “Purinyl-N-hydroxyl pyrimidine formamide derivative, preparation methods and uses thereof” (Guizhou Bailing Group Pharmaceutical CO., LTD., priority 2015, dated 2019).

How the values were obtained:
[1] = target: T1, mTOR (Homo sapiens, UniProt P42345); experiment: mTOR activity inhibition (ULight-4E-BP1 peptide); assay type: biochemical; details: Table 1, graded
T1 construct: purchased Millipore 14-770
Description: mTOR protein is purchased from Millipore Company (Catalog No.: 14-770). The reaction buffer system comprises 50 mM HEPES, 10 mM MgCl2, 1 mM EGTA, 3 mM […], 0.01% Tween-20 (purchased from Chengdu Kelong Chemical Regent Factory) and 2 mM DTT. The pH value of the reaction buffer is 7.5. Preparing 10 μL reaction system in corresponding wells of the 384 well plate, which contains the compositions as: the compound with designed concentration (or blank control), mTOR protein (with the concentration of 2.5 nM), ULight-4E-BP1 (containing the 37th and the 46th threonine residues, Thr37/46) peptide (purchased from PE Company, Catalog No.: TRF0128-M) and ATP substrates (ULight-4E-BP1 peptide, with the concentration of 50 nM and ATP, with the concentration of […]). Mixing it evenly for incubation under ambient temperature for 1 h; adding 10 μL testing liquid containing EDTA (ethylenediaminetetraacetic acid) and Eu-anti-phosphorylation-4E-BP1 (Thr37/46) antibody (purchased from PE Company, Catalog No.: TRF0216-M) into the reaction wells (after the testing liquid is added, the concentration of EDTA is 8 mM and the concentration of Eu-phosphorylation-4E-BP1 antibody is 2 nM); mixing it evenly and incubating it for 1 h under ambient temperature, then measuring the fluorescence intensity with a microplate reader and analyzing the result data with the software GraphPad Prism.
Calculating the value of IC50 as per the formula: Y=background data+(top data−background data)/(1+10^((Log IC50−X)*rate of curve))
Where, Y refers to the inhibition ratio (%) and X refers to the compound concentration.

[2] = tested on: human colon cancer hct116 subcutaneous tumor; experiment: Subcutaneous tumor model, human colon cancer hct116; details: once per 2 days, intravenous

T1 sequence (P42345 1362-2549 limits assumed): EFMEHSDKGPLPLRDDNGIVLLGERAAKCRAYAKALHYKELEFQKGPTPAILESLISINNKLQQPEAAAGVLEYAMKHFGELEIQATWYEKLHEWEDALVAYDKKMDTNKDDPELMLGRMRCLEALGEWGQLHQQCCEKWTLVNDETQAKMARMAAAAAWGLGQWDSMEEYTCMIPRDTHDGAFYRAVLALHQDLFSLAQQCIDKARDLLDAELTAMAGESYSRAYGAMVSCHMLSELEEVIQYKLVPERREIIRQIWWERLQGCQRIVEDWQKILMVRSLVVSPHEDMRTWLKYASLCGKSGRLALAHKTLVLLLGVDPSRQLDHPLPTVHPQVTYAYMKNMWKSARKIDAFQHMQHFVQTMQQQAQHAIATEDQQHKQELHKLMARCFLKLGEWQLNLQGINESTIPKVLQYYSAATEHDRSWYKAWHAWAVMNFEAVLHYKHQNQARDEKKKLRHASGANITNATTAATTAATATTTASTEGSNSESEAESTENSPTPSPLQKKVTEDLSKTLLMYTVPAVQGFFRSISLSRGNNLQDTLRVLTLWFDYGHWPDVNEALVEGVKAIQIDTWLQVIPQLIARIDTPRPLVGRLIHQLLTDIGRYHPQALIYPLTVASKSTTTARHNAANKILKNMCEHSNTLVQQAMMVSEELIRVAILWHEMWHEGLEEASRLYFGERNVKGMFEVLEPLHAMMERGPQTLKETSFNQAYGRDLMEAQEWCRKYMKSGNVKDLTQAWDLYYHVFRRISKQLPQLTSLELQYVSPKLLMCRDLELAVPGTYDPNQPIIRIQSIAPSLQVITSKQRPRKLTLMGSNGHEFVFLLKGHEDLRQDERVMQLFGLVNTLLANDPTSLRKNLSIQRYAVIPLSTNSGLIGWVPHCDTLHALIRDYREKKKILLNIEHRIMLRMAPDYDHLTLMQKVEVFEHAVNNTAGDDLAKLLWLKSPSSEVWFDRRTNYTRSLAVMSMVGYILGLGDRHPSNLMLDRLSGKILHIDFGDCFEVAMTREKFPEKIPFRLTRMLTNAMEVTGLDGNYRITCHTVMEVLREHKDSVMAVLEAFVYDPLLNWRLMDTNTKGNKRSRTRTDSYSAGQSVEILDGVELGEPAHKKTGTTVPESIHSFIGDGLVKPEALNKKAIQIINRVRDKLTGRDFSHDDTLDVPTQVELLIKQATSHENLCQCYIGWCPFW

| Compound | IC50 [1] | Death ([2]; 2.5 mg/kg) | Inhibitory rate (%) ([2]; 2.5 mg/kg) | Death ([2]; 5 mg/kg) | Inhibitory rate (%) ([2]; 5 mg/kg) | Death ([2]; 10 mg/kg) | Inhibitory rate (%) ([2]; 10 mg/kg) |
| --- | --- | --- | --- | --- | --- | --- | --- |
| COc1ccc(-c2nc(N3CCOCC3)c3nc(CN(C)c4ncc(C(=O)NO)cn4)n(C)c3n2)cn1 [CLJ-1, 2-(((2-(6-methoxypyridine-3-yl)-9-methyl-6-morpholine-9H-purine-8-yl))methyl(methyl)amino)-N-hydroxyl pyrimidine-5-formamide] | 1 to 10 µM |  |  |  |  |  |  |
| CN(Cc1nc2c(N3CCOCC3)nc(-c3cnc(N)nc3)nc2n1C)c1ncc(C(=O)NO)cn1 [CLJ-11, 2-(((2-(2-aminopyrimidine-5-yl)-9-methyl-6-morpholine-9H-purine-8-yl))methyl(methyl)amino)-N-hydroxyl pyrimidine-5-formamide] | 0.1 to 1 µM |  |  |  |  |  |  |
| CN(Cc1nc2c(N3CCOCC3)nc(-c3ccc(N)cc3)nc2n1C)c1ncc(C(=O)NO)cn1 [CLJ-44] |  | 0/6 | 49.4% | 0/6 | 53.3% | 0/6 | 68.2% |
